Source: patent US9623123B2, “Fluorescent conjugated polymers with a bodipy-based backbone and uses thereof” (Michigan Technological University, priority 2008, dated 2017)

Key:
[1] = UV-visible absorption and fluorescence spectra, fluorescence quantum yields in solution; type: physicochemical
Method: ^1H NMR and ^13C NMR spectra were taken on a 400 MHz Varian Unity Inova spectrophotometer instrument. ^1H and ^13C NMR spectra were recorded in CDCl3, chemical shifts (δ) are given in ppm relative to solvent peaks (1H: δ 7.26; 13C: δ 77.3) as internal standard. UV spectra were taken on a Hewlett Packard 8452A Diode Array UV-visible spectrophotometer. Fluorescence spectra were recorded on a Spex Fluorolog 1681 0.22 m steady-state fluorometer. Fluorescence quantum yields of BODIPY dyes and polymers were measured in methylene chloride and DMF, and calculated by using fluorescein excited at 490 nm in 0.1 N NaOH as the reference absolute quantum efficiency (φn=85%). Molecular weights of the polymers were determined by gel permeation chromatography (“GPC”) by using a Waters Associates Model 6000A liquid chromatograph. Three American Polymer Standards Corp. Ultrastyragel columns in series with porosity indices of 10^3, 10^4, and 10^5 Å were used and housed in an oven thermostated at 30° C. Mobile phase was HPLC grade THF which was filtered and degassed by vacuum filtration through a 0.5 μm fluoropore filter prior to use. The polymers were detected by a Waters Model 440 ultraviolet absorbance detector at a wavelength of 254 nm and a Waters Model 2410 refractive index detector. Molecular weights were measured relative to polystyrene standards. An Enraf Nonius CAD-4 X-Ray diffractometer was used in the crystal structure determination. The windows program WinGX was used as the interface for the solution and refinement of the model. The data were first reduced and corrected for absorption using the psi-scans, and then solved using the program SIR2004. The model was refined using SHELXL97.
(§1) ^1H NMR and ^13C NMR spectra were taken on a 400 MHz Varian Unity Inova spectrophotometer instrument. ^1H and ^13C NMR spectra were recorded in CDCl3, and chemical shifts (5) are given in ppm relative to solvent peaks (at 7.24 ppm for ^1H spectra and at 77.3 for ^13C spectra) as internal standard. UV spectra were taken on a Hewlett-Packard 8452A Diode Array UV-visible spectrophotometer. Fluorescence spectra were recorded on a Spex Fluorolog 1681 0.22 m steady-state fluorometer. Fluorescence quantum yields of BODIPY dyes and polymers were measured in methylene chloride and calculated by using fluorescein excited at 490 nm in 0.1 N NaOH as the reference (its quantum efficiency of 85%). Fluorescence lifetimes were measured on a GL-3300 Nitrogen Laser laserstrobe PTI instrument and analyzed using FeliX32 software.
^1H NMR and ^13C NMR spectra were taken on a 400 MHz Varian Unity Inova spectrophotometer instrument. ^1H and ^13C NMR spectra were recorded in CDCl3, chemical shifts (δ) are given in ppm relative to solvent peaks (^1H: δ 7.26; ^13C: δ 77.3) as internal standard. UV spectra were taken on a Hewlett Packard 8452A Diode Array UV-visible spectrophotometer. Fluorescence spectra were recorded on a Spex Fluorolog 1681 0.22 m steady-state fluorometer. Fluorescence quantum yields of BODIPY dyes and polymers were measured in methylene chloride and DMF, and calculated by using fluorescein excited at 490 nm in 0.1 N NaOH as the reference quantum efficiency (φn=85%).^30,31 Molecular weights of the polymers were determined by gel permeation chromatography (GPC) by using a Waters Associates Model 6000A liquid chromatograph. Three American Polymer Standards Corp. Ultrastyragel columns in series with porosity indices of 10^3, 10^4, and 10^5 Å were used and housed in an oven thermostated at 30° C. Mobile phase was HPLC grade THF which was filtered and degassed by vacuum filtration through a 0.5 μm fluoropore filter prior to use. The polymers were detected by a Waters Model 440 ultraviolet absorbance detector at a wavelength of 254 nm and a Waters Model 2410 refractive index detector. Molecular weights were measured relative to polystyrene standards. […]

[2] = Fluorescence lifetime measurement; type: physicochemical
Method: as §1
^1H NMR and ^13C NMR spectra were taken on a 400 MHz Varian Unity Inova spectrophotometer instrument. ^1H and ^13C NMR spectra were recorded in CDCl3, and chemical shifts (δ) are given in ppm relative to solvent peaks (^1H, δ 7.26; ^13C, δ 77.3) as internal standard. UV spectra were taken on a Hewlett-Packard 8452A Diode Array UV-visible spectrophotometer. Fluorescence spectra were recorded on a Spex Fluorolog 1681 0.22 m steady-state fluorometer. Fluorescence quantum yields of BODIPY dyes and polymers were measured in methylene chloride and calculated by using fluorescein exCIted at 490 nm in 0.1 N NaOH as the reference (quantum effiCIency, cPn=85%). Fluorescence lifetimes were measured on a 010-3300 Nitrogen Laser laserstrobe PTI instrument and analyzed using FeliX32 software. Molecular weights of the polymers were determined by gel permeation chromatography (OPC) by using a Waters AssoCIates model 6000A liquid chromatograph. Three American Polymer Standards Corp. ultrastyragel columns in series with porosity indices of 103, 104, and 105 A were used and housed in an oven thermostatted at 30° C. The mobile phase was HPLC grade THF which was filtered and degassed by vacuum filtration through a 0.5, urn fluoropore filter prior to use. The polymers were detected by a Waters Model 440 ultraviolet absorbance detector at a wavelength of 254 nm and a Waters Model 2410 refractive index detector. Molecular weights were determined relative to polystyrene standards.

[3] = methylene chloride solution (Table 9, Example 13)
[4] = methylene chloride solution (Table 10, Example 14)
[5] = methylene chloride solution, fluorescein standard (Table 10, Example 14)
[6] = methylene chloride solution, fluorescein standard (Table 9, Example 13)
[7] = CH2Cl2 solution (Table 2, Example 2)
[8] = CH2Cl2 solution, fluorescein reference (Example 2)
[9] = DMF solution (Table 3, Example 2)
[10] = DMF solution, fluorescein reference (Example 2)

Structure (SMILES): CCCCCCCCCCCCOc1ccc(C2=C3C(C)=CC(C)=[N+]3[B-](F)(F)n3c(C)cc(C)c32)cc1 [Compound 3a]
- Absorption maxima [1, 3]: 501 nm
- Emission maxima [1, 3]: 509 nm
- Stokes shift [1, 3]: 8 nm
- Absorption maxima [1, 4]: 501 nm
- Emission maxima [1, 4]: 510 nm
- Quantum yield [1, 5]: 76%
- Fluorescence lifetime [2, 3]: 3.9 ns
- Fluorescence lifetime [2, 4]: 3.8 ns

Structure (SMILES): CCCCCCCCCCCCOc1ccc(C2=C3C(C)=CC(C)=[N+]3[B-](F)(F)n3c(C)cc(C)c32)cc1OCCCCCCCCCCCC [Compound 3b]
- Absorption maxima [1, 3]: 502 nm
- Emission maxima [1, 3]: 510 nm
- Stokes shift [1, 3]: 8 nm
- Absorption maxima [1, 4]: 502 nm
- Emission maxima [1, 4]: 511 nm
- Quantum yield [1, 5]: 81%
- Fluorescence lifetime [2, 3]: 4.1 ns
- Fluorescence lifetime [2, 4]: 4.1 ns

Structure (SMILES): CCCCCCCCCCCCOc1cc(C2=C3C(C)=CC(C)=[N+]3[B-](F)(F)n3c(C)cc(C)c32)cc(OCCCCCCCCCCCC)c1OCCCCCCCCCCCC [Compound 3c]
- Absorption maxima [1, 3]: 503 nm
- Emission maxima [1, 3]: 511 nm
- Stokes shift [1, 3]: 9 nm
- Fluorescence lifetime [2, 3]: 3.2 ns

Structure (SMILES): CCCCCCCCCCCCOc1ccc(C2=C3C(C)=C(I)C(C)=[N+]3[B-](F)(F)n3c(C)c(I)c(C)c32)cc1 [Compound 4a]
- Absorption maxima [1, 3]: 533 nm
- Emission maxima [1, 3]: 548 nm
- Stokes shift [1, 3]: 15 nm
- Absorption maxima [1, 4]: 533 nm
- Emission maxima [1, 4]: 548 nm
- Quantum yield [1, 6]: 2.3%
- Quantum yield [1, 5]: 5.8%
- Fluorescence lifetime [2, 3]: 0.21 ns
- Fluorescence lifetime [2, 4]: 0.13 ns

Structure (SMILES): CCCCCCCCCCCCOc1ccc(C2=C3C(C)=C(I)C(C)=[N+]3[B-](F)(F)n3c(C)c(I)c(C)c32)cc1OCCCCCCCCCCCC [Compound 4b]
- Absorption maxima [1, 3]: 534 nm
- Emission maxima [1, 3]: 549 nm
- Stokes shift [1, 3]: 15 nm
- Absorption maxima [1, 4]: 534 nm
- Emission maxima [1, 4]: 549 nm
- Quantum yield [1, 6]: 2.7%
- Quantum yield [1, 5]: 5.8%
- Fluorescence lifetime [2, 3]: 0.15 ns
- Fluorescence lifetime [2, 4]: 0.08 ns

Structure (SMILES): CCCCCCCCCCCCOc1cc(C2=C3C(C)=C(I)C(C)=[N+]3[B-](F)(F)n3c(C)c(I)c(C)c32)cc(OCCCCCCCCCCCC)c1OCCCCCCCCCCCC [Compound 4c]
- Absorption maxima [1, 3]: 535 nm
- Emission maxima [1, 3]: 550 nm
- Stokes shift [1, 3]: 15 nm
- Quantum yield [1, 6]: 2.3%
- Fluorescence lifetime [2, 3]: 0.19 ns

Structure (SMILES): CCCCCCCCCCCCOc1ccc(C2=C3C(C)=C(C#C[Si](C)(C)C)C(C)=[N+]3[B-](F)(F)n3c(C)c(C#C[Si](C)(C)C)c(C)c32)cc1 [Compound 5a]
- Absorption maxima [1, 3]: 554 nm
- Emission maxima [1, 3]: 569 nm
- Stokes shift [1, 3]: 15 nm
- Absorption maxima [1, 4]: 553 nm
- Emission maxima [1, 4]: 569 nm
- Quantum yield [1, 5]: 71%
- Fluorescence lifetime [2, 3]: 4.4 ns
- Fluorescence lifetime [2, 4]: 4.5 ns

Structure (SMILES): CCCCCCCCCCCCOc1ccc(C2=C3C(C)=C(C#C[Si](C)(C)C)C(C)=[N+]3[B-](F)(F)n3c(C)c(C#C[Si](C)(C)C)c(C)c32)cc1OCCCCCCCCCCCC [Compound 5b]
- Absorption maxima [1, 3]: 555 nm
- Stokes shift [1, 3]: 15 nm
- Absorption maxima [1, 4]: 554 nm
- Emission maxima [1, 4]: 570 nm
- Quantum yield [1, 5]: 79%
- Fluorescence lifetime [2, 3]: 4.6 ns
- Fluorescence lifetime [2, 4]: 5.2 ns

Structure (SMILES): CCCCCCCCCCCCOc1cc(C2=C3C(C)=C(C#C[Si](C)(C)C)C(C)=[N+]3[B-](F)(F)n3c(C)c(C#C[Si](C)(C)C)c(C)c32)cc(OCCCCCCCCCCCC)c1OCCCCCCCCCCCC [Compound 5c]
- Absorption maxima [1, 3]: 556 nm
- Emission maxima [1, 3]: 570 nm
- Stokes shift [1, 3]: 14 nm
- Fluorescence lifetime [2, 3]: 4.4 ns

Structure (SMILES): COc1cc(C2=C3C(C)=CC(C)=[N+]3[B-](F)(F)n3c(C)cc(C)c32)cc(OC)c1OC [Compound 9, 4,4-Difluoro-8-(3,4,5-trimethoxyphenyl)-1,3,5,7-tetramethyl-4-bora-3a,4a-diaza-s-indacene]
- Absorption maxima [1, 7]: 502 nm
- Emission maxima [1, 7]: 511 nm
- Quantum yield [1, 8]: 71.5%
- Absorption maxima [1, 9]: 501 nm
- Emission maxima [1, 9]: 511 nm
- Quantum yield [1, 10]: 55.3%

Structure (SMILES): COc1cc(C2=C3C(C)=C(I)C(C)=[N+]3[B-](F)(F)n3c(C)c(I)c(C)c32)cc(OC)c1OC [Compound 10, 4,4-Difluoro-8-(3,4,5-trimethoxyphenyl)-2,6-diiodo-1,3,5,7-tetramethyl-4-bora-3a,4a-diaza-s-indacene]
- Absorption maxima [1, 7]: 535 nm
- Emission maxima [1, 7]: 549 nm
- Quantum yield [1, 8]: 7.52%
- Absorption maxima [1, 9]: 534 nm
- Emission maxima [1, 9]: 551 nm
- Quantum yield [1, 10]: 3.4%

Structure (SMILES): COc1ccc(C2=C3C(C)=CC(C)=[N+]3[B-](F)(F)n3c(C)cc(C)c32)cc1 [Compound 14, 4,4-Difluoro-8-(4-methoxyphenyl)-1,3,5,7-tetramethyl-4-bora-3a,4a-diaza-s-indacene]
- Absorption maxima [1, 7]: 500 nm
- Emission maxima [1, 7]: 510 nm
- Quantum yield [1, 8]: 80.1%
- Absorption maxima [1, 9]: 500 nm
- Emission maxima [1, 9]: 510 nm
- Quantum yield [1, 10]: 71.6%

Structure (SMILES): COc1ccc(C2=C3C(C)=C(I)C(C)=[N+]3[B-](F)(F)n3c(C)c(I)c(C)c32)cc1 [Compound 15, 4,4-Difluoro-8-(4-methoxyphenyl)-2,6-diiodo-1,3,5,7-tetramethyl-4-bora-3a, 4a-diaza-s-indacene]
- Absorption maxima [1, 7]: 533 nm
- Emission maxima [1, 7]: 548 nm
- Quantum yield [1, 8]: 5.72%
- Absorption maxima [1, 9]: 533 nm
- Emission maxima [1, 9]: 551 nm
- Quantum yield [1, 10]: 4.9%

Structure (SMILES): CC1=CC(C)=[N+]2C1=C(c1c(C)cccc1C)c1c(C)cc(C)n1[B-]2(F)F [Compound 18, 4,4-Difluoro-8-(2,6-dimethylphenyl)-1,3,5,7-tetramethyl-4-bora-3a,4a-diaza-s-indacene]
- Absorption maxima [1, 7]: 501 nm
- Emission maxima [1, 7]: 510 nm
- Quantum yield [1, 8]: 86.7%
- Absorption maxima [1, 9]: 502 nm
- Emission maxima [1, 9]: 510 nm
- Quantum yield [1, 10]: 73.8%

Structure (SMILES): CC1=C(I)C(C)=[N+]2C1=C(c1c(C)cccc1C)c1c(C)c(I)c(C)n1[B-]2(F)F [Compound 19, 4,4-Difluoro-8-(2,6-dimethylphenyl)-2,6-diiodo-1,3,5,7-tetramethyl-4-bora-3a,4a-diaza-s-indacene]
- Absorption maxima [1, 7]: 535 nm
- Emission maxima [1, 7]: 549 nm
- Quantum yield [1, 8]: 8.64%
- Absorption maxima [1, 9]: 536 nm
- Emission maxima [1, 9]: 552 nm
- Quantum yield [1, 10]: 4.4%
